Experimental data taken from publication PMC11359809, “Probing the molecular basis for signal transduction through the Zinc-Activated Channel (ZAC)” (Biochemical pharmacology, 2021).
Values joined by “and” are separate entries in the source; they are usually repeats but may differ in a detail not shown here. Equal entries are not always repeated.

Columns and labels:
m5-HT3A/ZAC = molecular target: T1, m5-HT3A/ZAC (Mus musculus / Homo sapiens, UniProt P23979); assay: TEVC in oocytes expressing m5-HT3A/ZAC chimera; type: cell-based
T1 sequence (P23979 24-246): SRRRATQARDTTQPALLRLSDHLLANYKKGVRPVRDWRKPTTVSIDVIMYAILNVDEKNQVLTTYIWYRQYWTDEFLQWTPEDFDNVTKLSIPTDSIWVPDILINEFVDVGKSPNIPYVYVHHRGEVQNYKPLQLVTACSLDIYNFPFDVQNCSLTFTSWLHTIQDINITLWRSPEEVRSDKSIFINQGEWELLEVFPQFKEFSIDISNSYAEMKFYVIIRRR
T1 sequence (Q401N2 231-412 partner): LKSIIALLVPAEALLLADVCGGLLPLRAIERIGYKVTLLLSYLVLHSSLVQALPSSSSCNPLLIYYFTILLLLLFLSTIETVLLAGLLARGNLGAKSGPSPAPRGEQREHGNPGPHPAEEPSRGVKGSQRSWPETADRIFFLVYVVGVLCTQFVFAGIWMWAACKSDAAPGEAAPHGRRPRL
Source text: (§1) The construction of the ZAC-pUNIV plasmid (encoding for the human WT ZAC that contains a Thr in position 128) has been described previously. The m5-HT3A and hα1 GlyR cDNAs were subcloned from their original vectors into pUNIV (Addgene, Watertown, MA) using NheI and EcoRI as restriction enzymes. […] The C-terminus modifications in these four chimeras were introduced in their cDNAs in the same way. Point mutations were introduced in cDNAs by use of the QuikChange mutagenesis kit (Stratagene, San Diego, CA). The validity and absence of unwanted mutations in the constructed cDNAs was verified by DNA sequencing (Macrogen Europe, Amsterdam, The Netherlands).
(§2) All cDNAs used for cRNA synthesis were inserted in the pUNIV vector. The cDNAs were linearized and subsequently transcribed and capped using the mMessage mMachine T7 RNA transcription kit (Ambion, Waltham, MA). […] Oocytes were incubated in a sterile modified Barth’s solution [88 mM NaCl, 1 mM KCl, 15 mM HEPES (pH 7.5), 2.4 mM NaHCO3, 0.41 mM CaCl2, 0.82 mM MgSO4, 0.3 mM Ca(NO3)2, 100 U/ml penicillin and 100 μg/ml streptomycin] at 16–18 °C. Based on experience gained with WT ZAC in a recent study, all TEVC recordings were performed two days after cRNA injection.
(§3) On the day of the TEVC recording, all compound dilutions were prepared in a saline solution [115 mM NaCl, 2.5 mM KCl, 10 mM MOPS (pH 7.5), 1.8 mM CaCl2, 0.1 mM MgCl2], and pH was adjusted to 7.5 (if needed). Oocytes were placed in a recording chamber continuously perfused with this saline solution, and the compounds were applied in the perfusate. Both voltage and current electrodes were agar-plugged with 3 M KCl with a resistance of 0.2–2.0 MΩ. Oocytes were voltage-clamped at −50 mV (except in the studies of the chimeras and their parent receptors where they were clamped at −60 mV, section 3.1), by a Gene Clamp 500B amplifier, and current signals were digitized by a Digidata 1322A (both from Axon Instruments, Union City, CA). Currents were recorded using pCLAMP 10 (Molecular Devices, Sunnyvale, CA). The recordings were performed at room temperature.
(§4) In all recordings, compounds or compound combinations were applied in the bath until the peak current decayed to a steady state (up to 30 s). […] The antagonist properties of compounds were determined by pre-application of the compound to the perfusate for 30 s followed by co-application of the compound and the agonist. In all recordings, washes of 1–5 min were executed between the ligand applications, the length of the washes depending on the agonist concentrations used and on the return to baseline current amplitude.
(§5) Analysis of the data from the TEVC recordings were performed using Clampfit software version 10.5 (Molecular Devices, Crawley, UK) and GraphPad Prism version 7.0c (GraphPad Software, La Jolla, CA). Unless otherwise stated, the inward currents induced by agonists in oocytes were normalized to the maximal response elicited by a specific agonist (agonist Imax) on each oocyte. Concentration-response and concentration-inhibition curves were fitted in GraphPad Prism by nonlinear regression using the equation for sigmoidal dose-response with variable slope. Each data point represents the mean ± S.E.M. value of recordings performed on at least five oocytes in total from at least two different batches. For the data where statistical analysis was performed, a one-way ANOVA was used. The null hypothesis was rejected at P < 0.05, and the differences between the means were analyzed by Tukey’s multiple comparisons test.

m5-HT3A^FPR/ZAC = assay: TEVC in oocytes, Cys-loop modified chimera m5-HT3A^FPR/ZAC; type: cell-based, mouse/human; conditions: data not shown
Description: (§6) The recordings were performed at room temperature.
To probe the effects of exchanges of regions involved in the ECD/TMD cross-talk between the two CLRs fused in a chimera on its functionality, we constructed 12 additional chimeras, three for each of the four original chimeras (Fig. 1A). Inspired by the similar modifications that have been introduced in a functional GLIC/hα1-Gly chimera, we swapped one or both of two specific regions: the three-residue FPX (Phe-Pro-X) motif in the Cys-loop of the ECD (FPR, FPF and […] in ZAC, m5-HT3A and hα1 GlyR, respectively), which is known to protude into proximity of the M2-M3 linker during the ECD/TMD cross-talk, and the extracellular C-terminus of the TMD, which differs substantially in both amino acid sequence and length between ZAC and the two classical CLRs combined with it in the chimeras (Fig. 4B). […] In light of this, it was not surprising that the four chimeras comprising exchanges of both the FPX motif and the C-terminus also were non-functional (data not shown).

WT m5-HT3AR = molecular target: T2, WT m5-HT3AR (Mus musculus, UniProt P23979); assay: TEVC in Xenopus oocytes expressing WT m5-HT3AR; type: cell-based
T2 construct: expressed in transfected cells; host or cells: Xenopus oocytes injected with cRNA (pUNIV vector)
T2 sequence (P23979 24-489): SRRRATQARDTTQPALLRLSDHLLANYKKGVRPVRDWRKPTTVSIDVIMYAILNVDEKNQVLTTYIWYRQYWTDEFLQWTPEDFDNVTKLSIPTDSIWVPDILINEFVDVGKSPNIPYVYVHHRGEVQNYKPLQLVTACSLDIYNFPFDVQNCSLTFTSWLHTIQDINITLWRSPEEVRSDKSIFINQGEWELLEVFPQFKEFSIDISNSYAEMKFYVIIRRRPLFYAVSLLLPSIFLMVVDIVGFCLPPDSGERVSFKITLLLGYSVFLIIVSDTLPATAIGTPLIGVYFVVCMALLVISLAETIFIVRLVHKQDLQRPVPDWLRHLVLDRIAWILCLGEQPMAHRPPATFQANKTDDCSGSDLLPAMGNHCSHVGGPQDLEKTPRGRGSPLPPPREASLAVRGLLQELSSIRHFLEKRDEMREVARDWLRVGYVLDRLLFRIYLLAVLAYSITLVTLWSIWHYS
Description: as §6, §5

hα1-Gly/ZAC = assay: TEVC in oocytes expressing hα1-Gly/ZAC chimera; type: cell-based, human; conditions: 1 mM Gly; n = 5
Description: as §6, §5
Initially, we constructed four chimeric subunits fusing the ZAC ECD or TMD-ICD with the complementary domains from either the m5-HT3A or the hα1 GlyR subunit: ZAC/m5-HT3A, m5-HT3A/ZAC, ZAC/hα1-Gly and hα1-Gly/ZAC (Fig. 1A). […] (Fig. 1A).

hα1-Gly/ZAC-II = conditions: Gly 1 mM; data not shown
Source text: as §1
All cDNAs used for cRNA synthesis were inserted in the pUNIV vector. […]
On the day of the TEVC recording, all compound dilutions were prepared in a saline solution [115 mM NaCl, 2.5 mM KCl, 10 mM MOPS (pH 7.5), 1.8 mM CaCl2, 0.1 mM MgCl2], and pH was adjusted to 7.5 (if needed). […] Currents were recorded using pCLAMP 10 (Molecular Devices, Sunnyvale, CA). […]
In all recordings, compounds or compound combinations were applied in the bath until the peak current decayed to a steady state (up to 30 s). […] The antagonist properties of compounds were determined by pre-application of the compound to the perfusate for 30 s followed by co-application of the compound and the agonist. […]

WT hα1 GlyR = molecular target: T3, WT hα1 GlyR (Homo sapiens, UniProt P23415); type: cell-based
T3 construct: expressed in transfected cells; host or cells: Xenopus oocytes injected with cRNA (pUNIV vector)
T3 sequence (P23415 29-457): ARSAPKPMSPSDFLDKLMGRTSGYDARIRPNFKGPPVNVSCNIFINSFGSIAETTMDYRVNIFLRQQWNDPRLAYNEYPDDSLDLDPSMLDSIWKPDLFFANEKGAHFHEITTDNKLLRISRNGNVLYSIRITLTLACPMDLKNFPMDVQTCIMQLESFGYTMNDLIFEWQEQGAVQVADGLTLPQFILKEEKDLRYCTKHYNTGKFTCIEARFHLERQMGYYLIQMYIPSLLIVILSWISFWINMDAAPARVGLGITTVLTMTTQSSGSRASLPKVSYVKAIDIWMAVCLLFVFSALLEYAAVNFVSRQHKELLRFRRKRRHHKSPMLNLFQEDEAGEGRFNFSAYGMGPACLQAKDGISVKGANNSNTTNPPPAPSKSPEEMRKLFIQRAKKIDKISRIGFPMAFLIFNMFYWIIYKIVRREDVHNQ
Source text: as §1, §2, §3, §4
as §5, with “For the data where statistical analysis was performed, a one-way ANOVA was used.” left out

[1] = sustained (4 min) application of 3 μM 5-HT
[2] = sustained (4 min) application of 100 μM 5-HT

## NCCc1c[nH]c2ccc(O)cc12 [5-HT, 5-hydroxytryptamine]
m5-HT3A/ZAC; 3 μM 5-HT, n = 12
  Imax (current amplitude evoked by saturating agonist): 0.60 ± 0.19 μA
m5-HT3A/ZAC; high-expressing half of the oocytes
  5-HT-evoked current amplitudes: 0.8–2.1 μA
m5-HT3A/ZAC; low-expressing half of the oocytes
  5-HT-evoked current amplitudes: 0.1–0.2 μA
m5-HT3A/ZAC; [1]
  Iresidual, 4 min: 67 % of Ipeak and 67 ± 6 % of Ipeak
  Δtstart-to-peak: 46 ± 7.2 s
m5-HT3A^FPR/ZAC
  concentration-response relationship compared to m5-HT3A/ZAC: not significantly different
WT m5-HT3AR; 300 μM 5-HT, n = 7
  Imax (current amplitude evoked by saturating agonist): 2.92 ± 0.13 μA
WT m5-HT3AR; agonist, n = 7
  nH ± S.E.M. (Hill slope): 1.3 ± 0.3
WT m5-HT3AR; [2]
  Iresidual, 4 min: ~0 (none) % of Ipeak
  Δtstart-to-peak: 2.1 ± 0.4 s
WT m5-HT3AR; sustained application of 100 μM 5-HT, mean ± S.E.M., n = 7
  time to complete return to baseline: 98 ± 12 s

## NCC(=O)O [Gly, glycine]
hα1-Gly/ZAC
  I1 mM Gly ± S.E.M.: −0.0062 ± 0.0022 μA
hα1-Gly/ZAC-II
  agonist-evoked current: did not induce significant responses
WT hα1 GlyR
  Imax (current amplitude evoked by saturating agonist): 2.02 ± 0.24 μA
  Δtpeak-to-plateau: 52 ± 5.9 s
  Δtstart-to-peak: 2.7 ± 0.3 s
